Measured values: ChEMBL document CHEMBL5096180, “Pyrimidine-based EGFR TK inhibitors in targeted cancer therapy” (Eur J Med Chem, 2021)
“And” between values parts separate entries of the source, which are not always exact repeats. Equal values may be shown once. Each block holds one compound with its values, some of them ahead of it.

Columns and labels:
[1] = system: Epidermal growth factor receptor (Homo sapiens), P00533 [L858R]; test: Inhibition of EGFR L858R mutant (unknown origin) relative to control; conditions: concentration not given here
[2] = system: Epidermal growth factor receptor (Homo sapiens), P00533 [L858R,T790M]; test: Inhibition of EGFR T790M/L858R double mutant (unknown origin) relative to control
Epidermal growth factor receptor (Homo sapiens), P00533 [L858R,T790M], sequence (P00533 whole entry T790M/L858R, looked up): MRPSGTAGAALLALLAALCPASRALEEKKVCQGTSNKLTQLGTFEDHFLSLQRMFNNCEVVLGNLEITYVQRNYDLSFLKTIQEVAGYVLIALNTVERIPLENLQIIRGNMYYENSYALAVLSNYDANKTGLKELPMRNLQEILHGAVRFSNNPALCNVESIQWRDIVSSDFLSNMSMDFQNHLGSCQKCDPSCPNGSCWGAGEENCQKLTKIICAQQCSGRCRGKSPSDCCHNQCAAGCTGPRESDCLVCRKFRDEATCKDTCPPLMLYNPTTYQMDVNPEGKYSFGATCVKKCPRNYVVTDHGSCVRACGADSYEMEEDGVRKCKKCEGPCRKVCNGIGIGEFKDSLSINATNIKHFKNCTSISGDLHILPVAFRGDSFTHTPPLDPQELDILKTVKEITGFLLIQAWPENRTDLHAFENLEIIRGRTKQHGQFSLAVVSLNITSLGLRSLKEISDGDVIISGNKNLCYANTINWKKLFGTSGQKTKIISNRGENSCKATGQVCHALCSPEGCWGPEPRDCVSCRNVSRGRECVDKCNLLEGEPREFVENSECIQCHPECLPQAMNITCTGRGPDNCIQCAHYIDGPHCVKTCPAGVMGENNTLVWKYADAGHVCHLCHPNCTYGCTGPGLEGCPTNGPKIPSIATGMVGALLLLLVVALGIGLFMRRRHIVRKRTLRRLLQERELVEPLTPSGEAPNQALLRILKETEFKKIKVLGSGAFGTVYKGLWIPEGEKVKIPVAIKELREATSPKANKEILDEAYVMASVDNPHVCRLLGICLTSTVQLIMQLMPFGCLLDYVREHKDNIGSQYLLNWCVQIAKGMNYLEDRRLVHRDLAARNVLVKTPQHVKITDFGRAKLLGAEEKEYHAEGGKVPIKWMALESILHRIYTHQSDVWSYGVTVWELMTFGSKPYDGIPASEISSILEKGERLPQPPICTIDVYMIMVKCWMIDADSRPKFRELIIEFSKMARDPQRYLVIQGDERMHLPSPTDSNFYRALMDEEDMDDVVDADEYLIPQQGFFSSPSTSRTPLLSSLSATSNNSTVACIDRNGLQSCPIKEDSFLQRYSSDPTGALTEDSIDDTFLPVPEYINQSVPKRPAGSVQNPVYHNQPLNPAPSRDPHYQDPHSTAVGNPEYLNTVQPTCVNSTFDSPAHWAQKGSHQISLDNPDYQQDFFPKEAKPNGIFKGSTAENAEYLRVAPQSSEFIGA

OVCAR-4 = test: Anticancer activity against human OVCAR-4 cells assessed as cell viability incubated for 24 hrs by MTT assay; format: functional, cell-based; conditions: OVCAR-4, 24 h
[3] = target: Receptor tyrosine-protein kinase erbB-2 (Homo sapiens, UniProt P04626); test: Inhibition of ErbB2 (unknown origin) pre-incubated for 5 mins followed by substrate addition and measured after 30 mins in presence of ATP by microtitre plate reader analysis
NCI-H460 = test: Anticancer activity against human NCI-H460 cells assessed as cell viability incubated for 24 hrs by MTT assay; format: functional, cell-based
ACHN = test: Anticancer activity against human ACHN cells assessed as cell viability incubated for 24 hrs by MTT assay; format: functional, cell-based
[4] = target: Epidermal growth factor receptor (Homo sapiens, UniProt P00533, L858R/T790M); test: Inhibition of EGFR L858R/T790M double mutant (unknown origin) in presence of ATP by ADP-Glo assay
Epidermal growth factor receptor (Homo sapiens, UniProt P00533, L858R/T790M), sequence (P00533 25-1210 T790M/L858R limits assumed): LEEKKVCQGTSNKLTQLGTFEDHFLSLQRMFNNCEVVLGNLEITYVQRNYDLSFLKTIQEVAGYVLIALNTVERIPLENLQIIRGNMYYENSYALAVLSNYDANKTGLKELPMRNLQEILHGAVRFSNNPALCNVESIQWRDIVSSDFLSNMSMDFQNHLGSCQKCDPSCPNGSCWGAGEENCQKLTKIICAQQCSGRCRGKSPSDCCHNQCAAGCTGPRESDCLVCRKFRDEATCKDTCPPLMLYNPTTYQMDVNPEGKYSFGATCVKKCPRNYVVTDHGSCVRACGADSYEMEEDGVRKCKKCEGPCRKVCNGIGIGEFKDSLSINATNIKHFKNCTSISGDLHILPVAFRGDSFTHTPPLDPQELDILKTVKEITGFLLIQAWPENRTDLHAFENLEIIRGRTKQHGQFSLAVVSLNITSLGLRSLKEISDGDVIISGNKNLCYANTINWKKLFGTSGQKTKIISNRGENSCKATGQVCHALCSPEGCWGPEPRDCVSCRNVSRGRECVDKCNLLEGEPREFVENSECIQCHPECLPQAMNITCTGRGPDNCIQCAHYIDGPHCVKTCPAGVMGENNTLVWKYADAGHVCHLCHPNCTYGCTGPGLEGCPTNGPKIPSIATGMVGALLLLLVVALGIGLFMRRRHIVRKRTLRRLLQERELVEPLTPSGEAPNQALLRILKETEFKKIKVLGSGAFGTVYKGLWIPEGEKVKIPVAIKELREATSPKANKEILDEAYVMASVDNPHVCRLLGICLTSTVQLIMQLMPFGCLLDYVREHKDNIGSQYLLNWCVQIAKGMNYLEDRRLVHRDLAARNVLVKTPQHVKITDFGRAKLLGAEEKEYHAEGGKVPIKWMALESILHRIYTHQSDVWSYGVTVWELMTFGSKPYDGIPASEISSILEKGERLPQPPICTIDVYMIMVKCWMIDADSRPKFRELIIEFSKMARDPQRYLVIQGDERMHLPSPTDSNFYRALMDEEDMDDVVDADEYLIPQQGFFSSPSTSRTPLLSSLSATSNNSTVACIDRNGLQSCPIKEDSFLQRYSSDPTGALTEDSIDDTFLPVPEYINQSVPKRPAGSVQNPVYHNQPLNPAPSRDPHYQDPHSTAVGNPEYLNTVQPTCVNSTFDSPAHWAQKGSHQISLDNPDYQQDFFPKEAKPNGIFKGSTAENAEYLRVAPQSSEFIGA

MCF7 [5] = test: Anticancer activity against human MCF7 cells incubated for 48 hrs by MTT assay; format: functional, cell-based; conditions: MCF7, 48 h
MCF7 [6] = test: Potency index,ratio of test compound IC50 to Erlotinib IC50 for antiproliferative activity against human MCF7 cells incubated for 48 hrs by MTT assay; format: functional
MCF7 [7] = test: Potency index,ratio of test compound IC50 to Doxorubicin IC50 for antiproliferative activity against human MCF7 cells incubated for 48 hrs by MTT assay; format: functional
[8] = target: T1, Epidermal growth factor receptor (Homo sapiens, UniProt P00533); test: Inhibition of recombinant EGFR (unknown origin) using TMB as substrate incubated for 3 hrs in presence of ATP by ELISA
T1 sequence (P00533 whole entry): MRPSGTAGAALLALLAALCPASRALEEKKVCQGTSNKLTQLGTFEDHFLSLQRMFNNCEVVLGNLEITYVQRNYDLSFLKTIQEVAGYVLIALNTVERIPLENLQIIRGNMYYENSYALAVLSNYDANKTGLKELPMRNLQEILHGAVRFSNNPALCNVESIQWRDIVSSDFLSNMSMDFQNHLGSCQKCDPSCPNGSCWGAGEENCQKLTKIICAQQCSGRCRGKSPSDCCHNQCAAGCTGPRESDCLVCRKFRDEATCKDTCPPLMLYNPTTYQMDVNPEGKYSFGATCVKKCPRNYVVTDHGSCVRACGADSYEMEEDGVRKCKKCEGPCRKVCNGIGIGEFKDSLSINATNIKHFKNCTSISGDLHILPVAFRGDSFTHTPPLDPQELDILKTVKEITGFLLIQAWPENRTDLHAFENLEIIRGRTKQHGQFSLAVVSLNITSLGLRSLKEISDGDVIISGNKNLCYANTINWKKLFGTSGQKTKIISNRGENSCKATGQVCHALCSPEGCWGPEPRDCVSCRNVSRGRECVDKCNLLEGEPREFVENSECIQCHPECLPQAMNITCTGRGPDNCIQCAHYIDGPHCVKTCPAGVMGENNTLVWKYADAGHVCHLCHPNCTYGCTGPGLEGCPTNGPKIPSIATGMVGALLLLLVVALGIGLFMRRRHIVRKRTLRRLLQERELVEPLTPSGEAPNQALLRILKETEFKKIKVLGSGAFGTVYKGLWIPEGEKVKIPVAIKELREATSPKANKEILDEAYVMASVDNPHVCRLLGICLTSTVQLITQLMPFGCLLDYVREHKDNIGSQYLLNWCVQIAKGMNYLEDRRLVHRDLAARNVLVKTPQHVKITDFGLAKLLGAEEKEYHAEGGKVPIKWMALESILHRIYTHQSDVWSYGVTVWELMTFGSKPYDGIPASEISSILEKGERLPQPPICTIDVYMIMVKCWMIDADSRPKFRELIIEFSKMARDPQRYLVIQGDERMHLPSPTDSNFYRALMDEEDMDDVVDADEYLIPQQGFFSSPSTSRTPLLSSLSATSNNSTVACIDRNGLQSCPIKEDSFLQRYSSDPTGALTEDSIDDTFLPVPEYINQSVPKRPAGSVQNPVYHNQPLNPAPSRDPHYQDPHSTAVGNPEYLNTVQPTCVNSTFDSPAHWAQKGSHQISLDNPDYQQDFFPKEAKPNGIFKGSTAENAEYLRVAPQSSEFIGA

[9] = target: T1, Epidermal growth factor receptor; test: Inhibition of recombinant C-terminal His-tagged/N-terminal GST-tagged human EGFR expressed in sf9 insect cells using poly(Glu, Tyr) sodium salt (4:1, Glu:Tyr) as a substrate measured after 40 mins by Kinase-Glo reagent based luminescence analysis
EKVX = test: Anticancer activity against human EKVX assessed as cell growth inhibition at 10 uM incubated for 48 hrs relative to control; format: functional; conditions: pooled result: one value given for 8 cell lines, strains, targets or settings
[10] = Inhibition of recombinant N-terminal GST-tagged human HER2 expressed in sf9 insect cells using poly(Glu, Tyr) sodium salt (4:1, Glu:Tyr) as a substrate measured after 40 mins by Kinase-Glo reagent based luminescence analysis
[11] = target: Epidermal growth factor receptor (Homo sapiens, UniProt P00533, C797S/L858R/T790M); test: Inhibition of EGFR L858R/T790M/C797S triple mutant (unknown origin)
NCI-H1975 [12] = test: Growth inhibition of human NCI-H1975 cells harbouring EGFR L858R/T790M double mutant; format: functional
[13] = target: Epidermal growth factor receptor (Homo sapiens, UniProt P00533, T790M); test: Inhibition of EGFR T790M mutant (unknown origin)
Epidermal growth factor receptor (Homo sapiens, UniProt P00533, T790M), sequence (P00533 25-1210 T790M limits assumed): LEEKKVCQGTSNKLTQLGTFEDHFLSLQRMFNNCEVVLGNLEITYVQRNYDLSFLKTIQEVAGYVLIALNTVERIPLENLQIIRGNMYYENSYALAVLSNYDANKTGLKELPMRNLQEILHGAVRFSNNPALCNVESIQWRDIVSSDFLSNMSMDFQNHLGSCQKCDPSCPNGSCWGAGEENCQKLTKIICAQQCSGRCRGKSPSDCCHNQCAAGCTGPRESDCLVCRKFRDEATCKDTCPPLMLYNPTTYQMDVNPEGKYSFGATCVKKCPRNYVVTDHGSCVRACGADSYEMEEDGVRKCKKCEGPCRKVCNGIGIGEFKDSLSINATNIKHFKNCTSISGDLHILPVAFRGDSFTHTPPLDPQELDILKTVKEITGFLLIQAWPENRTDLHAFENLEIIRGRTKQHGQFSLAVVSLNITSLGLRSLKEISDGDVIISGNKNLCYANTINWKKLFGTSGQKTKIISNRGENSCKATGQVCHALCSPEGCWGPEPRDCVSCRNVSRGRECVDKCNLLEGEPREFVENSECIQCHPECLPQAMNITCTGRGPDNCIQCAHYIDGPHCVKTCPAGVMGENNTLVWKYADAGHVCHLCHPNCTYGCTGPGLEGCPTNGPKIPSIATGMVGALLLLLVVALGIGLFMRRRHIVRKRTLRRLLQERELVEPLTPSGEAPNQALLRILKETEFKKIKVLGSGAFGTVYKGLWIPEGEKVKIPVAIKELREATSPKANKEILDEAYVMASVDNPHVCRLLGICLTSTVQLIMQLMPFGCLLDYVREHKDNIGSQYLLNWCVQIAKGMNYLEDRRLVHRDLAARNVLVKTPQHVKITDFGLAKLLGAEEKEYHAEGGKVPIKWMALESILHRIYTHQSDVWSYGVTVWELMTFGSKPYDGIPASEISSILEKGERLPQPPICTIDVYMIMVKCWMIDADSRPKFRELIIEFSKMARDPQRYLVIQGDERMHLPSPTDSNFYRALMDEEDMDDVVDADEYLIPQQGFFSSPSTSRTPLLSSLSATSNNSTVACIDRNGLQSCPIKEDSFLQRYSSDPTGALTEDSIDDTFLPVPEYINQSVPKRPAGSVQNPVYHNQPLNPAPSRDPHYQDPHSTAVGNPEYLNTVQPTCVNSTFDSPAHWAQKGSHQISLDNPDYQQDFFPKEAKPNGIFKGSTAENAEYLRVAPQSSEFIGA

[14] = target: T1, Epidermal growth factor receptor; test: Inhibition of EGFR (unknown origin) at 50 uM relative to control
[15] = target: T1, Epidermal growth factor receptor; test: Inhibition of EGFR (unknown origin) at 100 uM relative to control
HepG2 = test: Anticancer activity against human HepG2 cells; format: functional, cell-based
PC-3 = test: Anticancer activity against human PC-3 cells; format: functional, cell-based
HCT-116 = test: Anticancer activity against human HCT-116 cells; format: functional, cell-based
[16] = target: T2, Tyrosine-protein kinase JAK3 (Homo sapiens) (UniProt P52333); test: Inhibition of JAK3 (unknown origin)
T2 sequence (whole entry): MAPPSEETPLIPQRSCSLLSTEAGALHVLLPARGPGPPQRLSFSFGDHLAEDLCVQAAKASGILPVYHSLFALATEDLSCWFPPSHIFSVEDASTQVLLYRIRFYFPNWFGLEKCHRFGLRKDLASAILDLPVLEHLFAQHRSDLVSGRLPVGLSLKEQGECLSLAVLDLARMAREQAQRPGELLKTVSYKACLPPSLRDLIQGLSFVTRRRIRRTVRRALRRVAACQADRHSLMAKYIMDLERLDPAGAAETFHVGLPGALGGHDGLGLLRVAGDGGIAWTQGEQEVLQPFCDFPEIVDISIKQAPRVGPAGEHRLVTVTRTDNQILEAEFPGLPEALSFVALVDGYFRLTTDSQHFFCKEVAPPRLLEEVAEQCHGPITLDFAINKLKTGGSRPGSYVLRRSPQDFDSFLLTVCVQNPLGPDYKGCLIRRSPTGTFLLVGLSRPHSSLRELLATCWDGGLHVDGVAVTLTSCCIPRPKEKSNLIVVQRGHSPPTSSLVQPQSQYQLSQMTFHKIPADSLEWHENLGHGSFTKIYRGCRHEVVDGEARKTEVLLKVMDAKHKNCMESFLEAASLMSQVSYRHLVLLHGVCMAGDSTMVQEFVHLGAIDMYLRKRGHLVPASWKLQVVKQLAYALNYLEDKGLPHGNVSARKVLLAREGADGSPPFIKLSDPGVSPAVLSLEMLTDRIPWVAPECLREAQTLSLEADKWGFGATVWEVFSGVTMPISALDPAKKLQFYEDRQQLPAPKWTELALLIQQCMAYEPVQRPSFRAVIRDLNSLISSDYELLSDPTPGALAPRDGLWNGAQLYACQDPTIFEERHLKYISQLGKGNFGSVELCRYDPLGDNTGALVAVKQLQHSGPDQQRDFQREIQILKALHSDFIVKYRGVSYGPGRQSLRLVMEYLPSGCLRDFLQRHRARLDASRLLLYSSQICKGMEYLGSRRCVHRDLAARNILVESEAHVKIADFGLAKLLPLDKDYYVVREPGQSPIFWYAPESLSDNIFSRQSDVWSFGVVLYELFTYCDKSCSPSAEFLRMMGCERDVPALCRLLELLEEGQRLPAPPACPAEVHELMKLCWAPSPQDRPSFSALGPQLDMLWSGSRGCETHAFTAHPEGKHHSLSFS

NCI-H1975 [17] = test: Antiproliferative activity against human NCI-H1975 assessed as cell growth inhibition; format: functional, cell-based
HCC827 = test: Antiproliferative activity against human HCC827 assessed as cell growth inhibition; format: functional, cell-based
BaF3 [18] = test: Antiproliferative activity against mouse BAF3 cells harboring EGFR L858R/T790M/C797S triple mutant; format: functional, cell-based
BaF3 [19] = test: Antiproliferative activity against mouse BAF3 cells harboring EGFR 19D/T790M/C797S triple mutant; format: functional, cell-based
NCI-H1975 [20] = test: Antiproliferative activity against human NCI-H1975 cells assessed as cell growth inhibition incubated for 72 hrs by MTT assay; format: functional, cell-based; conditions: NCI-H1975, 72 h

inhibition [1]: 62%
inhibition [2]: 62%
Structure (SMILES): CCOC(=O)c1cnc(NC(N)=S)[nH]c1=O

IC50 (OVCAR-4): 1740 nM
IC50 [3]: 250 nM
IC50 (NCI-H460): 1740 nM and 4440 nM
IC50 (ACHN): 5530 nM
Structure (SMILES): Cc1nn(-c2ccc(F)cc2)c2c(Nc3ccc(F)c(Cl)c3)ncnc12

IC50 [4]: 9.1 nM
Structure (SMILES): C=CC(=O)Nc1cccc(Nc2nc(Nc3ccc(SCC(=O)N4CCOCC4)cc3)ncc2Cl)c1

IC50 (MCF7 [5]): 660 nM
IC50 [8]: 28 nM
Structure (SMILES): C=CC(=O)Nc1cccc(Oc2nc(Nc3ccc(OC)cc3)nc3c2CSCC3)c1
Ratio IC50 (MCF7 [6]): 1.73
Ratio IC50 (MCF7 [7]): 4.64

IC50 [9]: 200 nM
Structure (SMILES): Fc1cccc(COc2ccc(Nc3ncnc4sc5c(c34)CCCC5)cc2Cl)c1
inhibition at 10 µM (EKVX): 42%
IC50 [10]: 500 nM

IC50 [11]: 88 nM
GI50 (NCI-H1975 [12]): 140 nM
Structure (SMILES): C=CC(=O)N1CCCC(n2nc(-c3ccc4ccccc4c3)c3c(N)ncnc32)C1 (centres undefined)

IC50 [13]: 180 nM
Structure (SMILES): C=CC(=O)Nc1ccc(Nc2nccc(-c3cn(C)c4ccccc34)n2)cc1

GI50 (NCI-H1975 [12]): 210 nM
Structure (SMILES): C=CC(=O)N1CCCC(n2nc(-c3cn(C)c4ccccc34)c3c(N)ncnc32)C1 (centres undefined)

inhibition [14]: 81%
inhibition [15]: 86%
IC50 (HepG2): 300 nM
IC50 (PC-3): 6600 nM
IC50 (HCT-116): 7000 nM
Structure (SMILES): Cc1ccc(-c2cc(-c3ccc(Cl)cc3)nc3nc(-n4[nH]c(C)cc4=O)[nH]c(=O)c23)cc1

inhibition [1]: 62%
inhibition [2]: 62%
Structure (SMILES): CCOC(=O)c1cnc(NC(N)=S)nc1C

IC50 [16]: 60 nM
Structure (SMILES): CC#CC1=Nc2cc(Nc3nccc(-c4cn(C)c5ccccc45)n3)ccc2C(C)(C)O1

IC50 (NCI-H1975 [17]): 40 nM
IC50 (HCC827): 40 nM
Structure (SMILES): CN(C)C1CCN(c2ccc(Nc3cc4c(N5CCC(CO)CC5)nc(Nc5ccc(F)cc5)nc4cn3)nc2)CC1

IC50 [13]: 220 nM
Structure (SMILES): CC#CC(=O)Nc1ccc(Nc2nccc(-c3cn(C)c4ccccc34)n2)cc1

GI50 (NCI-H1975 [12]): 490 nM
Structure (SMILES): C=CC(=O)N1CCCC(n2nc(-c3cccc4ccccc34)c3c(N)ncnc32)C1 (centres undefined)

IC50 (BaF3 [18]): 290 nM
IC50 (BaF3 [19]): 310 nM
Structure (SMILES): CCC(=O)NC1CCC(N2C(=O)N(c3ccccc3Cl)Cc3cnc(Nc4ccc(N5CCN(C)CC5)c(C)c4)nc32)CC1 (centres undefined)

IC50 [4]: 27.5 nM
IC50 (NCI-H1975 [20]): 74 nM
Structure (SMILES): C=CC(=O)Nc1cccc(Nc2nc(Nc3ccc(SCCCN4CCOCC4)cc3)ncc2Cl)c1
